Literature values in PubChem BioAssay AID1259409 (Chemical Carcinogenesis Research Information System (CCRIS), 2018).

System: rodent chemically induced tumor inhibition, incidence and multiplicity
Assay: CCRIS tumor inhibitor studies

| SMILES | tumour outcome (control, treated, inhibition, significance) (Carcinogen: 7,12-DIMETHYLBENZ[A]ANTHRACENE, 57-97-6, Dose [Inhibitor]: 0, 1% IN DRINKING WATER FOR DURATION OF STUDY (STUDY DURATION: 13 WK), Route [Inhibitor]: ORAL, Species: HAMSTER, Strain/Sex: SYRIAN/MALE, Target Tissue: Type of Lesion: CHEEK POUCH: TUMOR, Dose [Carcinogen]: 0.5% IN ACETONE/HEAVY MINERAL OIL (1:20) 2/WK FOR 11 WK, Promoter: NONE USED) | tumour outcome (control, treated, inhibition, significance) (Carcinogen: 7,12-DIMETHYLBENZ[A]ANTHRACENE, 57-97-6, Dose [Inhibitor]: 0, 500 MG/KG BW 3/WK FOR DURATION OF STUDY (STUDY DURATION: 13 WK), Route [Inhibitor]: INTRAPERITONEAL, Species: HAMSTER, Strain/Sex: SYRIAN/MALE, Target Tissue: Type of Lesion: CHEEK POUCH: TUMOR, Dose [Carcinogen]: 0.5% IN ACETONE/HEAVY MINERAL OIL (1:20) 2/WK FOR 11 WK, Promoter: NONE USED) | tumour outcome (control, treated, inhibition, significance) (Carcinogen: N-METHYL-N-NITROSOUREA [684-93-5], Dose [Inhibitor]: 1000 PPM IN DIET FOR 19 WK BEGINNING 1 WK PRIOR TO FIRST CARCINOGEN DOSE (STUDY DURATION: 19 WK), Route [Inhibitor]: ORAL, Species: RAT, Strain/Sex: SPRAGUE-DAWLEY/FEMALE, Target Tissue: Type of Lesion: MAMMARY GLAND: TUMOR, Dose [Carcinogen]: 40 MG/KG BW ONCE (STUDY DURATION: 19 WK), Promoter: NONE) | tumour outcome (control, treated, inhibition, significance) (Carcinogen: N-METHYL-N-NITROSOUREA [684-93-5], Dose [Inhibitor]: 2000 PPM IN DIET FOR 19 WK BEGINNING 1 WK PRIOR TO FIRST CARCINOGEN DOSE (STUDY DURATION: 19 WK), Route [Inhibitor]: ORAL, Species: RAT, Strain/Sex: SPRAGUE-DAWLEY/FEMALE, Target Tissue: Type of Lesion: MAMMARY GLAND: TUMOR, Dose [Carcinogen]: 40 MG/KG BW ONCE (STUDY DURATION: 19 WK), Promoter: NONE) | tumour outcome (control, treated, inhibition, significance) (Carcinogen: 7,12-DIMETHYLBENZ[A]ANTHRACENE, 57-97-6, Dose [Inhibitor]: 0, 1 MMOL/KG IN DIET FOR THE DURATION OF STUDY BEGINNING 1 WK PRIOR TO CARCINOGEN DOSE (STUDY DURATION: 105 WK), Route [Inhibitor]: ORAL, Species: RAT, Strain/Sex: SPRAGUE-DAWLEY/FEMALE, Target Tissue: Type of Lesion: MAMMARY GLAND: TUMOR, Dose [Carcinogen]: 15 MG IN 1 ML SESAME OIL ONCE, Promoter: NONE USED) |
| --- | --- | --- | --- | --- | --- |
| CC(=O)NCCCCCCNC(C)=O | 13/13 (100%), 13/13 (100%), 0%, not significant | 13/13 (100%), 13/13 (100%), 0%, not significant | 18/20 (90%), 17/20 (85%), 6% not significant | 18/20 (90%), 17/20 (85%), 6%, not significant | – |
| CC1=C(/C=C/C(C)=C/C=C/C(C)=C/C(=O)Nc2ccc(O[C@@H]3O[C@H](C(=O)O)[C@@H](O)C(O)C3O)cc2)C(C)(C)CCC1 (stereo not given in full) | – | – | – | – | 88%, 36%, 59%, not significant |
